The values that follow are results of earlier work, collected in PubChem BioAssay AID1259409 (Chemical Carcinogenesis Research Information System (CCRIS), 2018).

This data set concerns rodent chemically induced tumor inhibition, incidence and multiplicity. Kind of data set: CCRIS tumor inhibitor studies. The settings on record: Route [Inhibitor]: ORAL.

On to `O=[Se](O)O`, for which the “tumour outcome (control, treated, inhibition, significance)” value was 11/34 (32%), 11/31 (35%), -9%, not significant (Carcinogen: N-METHYL-N-NITROSOUREA, 684-93-5, Dose [Inhibitor]: 5 MG IN DIET DAILY STARTING AT AGE 5 WK 2 WK PRIOR TO FIRST CARCINOGEN TREATMENT AND CONTINUING FOR DURATION OF STUDY (S, Species: HAMSTER, Strain/Sex: SYRIAN/MALE, Target Tissue: Type of Lesion: TRACHEA: NEOPLASM, Dose [Carcinogen]: 0.5% SOLUTION (PH 5) 1/WK FOR 12 WK, Promoter: NONE USED); 95%, 85%, 11%, not calculated (Carcinogen: N-METHYL-N-NITROSOUREA, 684-93-5, Dose [Inhibitor]: 5 MG/KG IN DIET DAILY STARTING 7 D AFTER CARCINOGEN TREATMENT AND CONTINUING FOR DURATION OF STUDY (STUDY DURATION: 90 D, Species: RAT, Strain/Sex: SPRAGUE-DAWLEY/FEMALE, Target Tissue: Type of Lesion: MAMMARY GLAND: ADENOCARCINOMA, Dose [Carcinogen]: 50 MG/KG BW IN 0.9% SALINE ONCE AT 50 D OF AGE, Promoter: NONE); 11/28 (39%), 9/30 (30%), 23%, not calculated (Carcinogen: N-NITROSOBIS(2-OXOPROPYL)AMINE, 60599-38-4, Dose [Inhibitor]: 0, 4 PPM IN DRINKING WATER BEGINNING POST CARCINOGEN TREATMENT AND CONTINUING FOR 37 WK (STUDY DURATION: 40 WK), Species: HAMSTER, Strain/Sex: SYRIAN/FEMALE, Target Tissue: Type of Lesion: PANCREAS: ADENOCARCINOMA, Dose [Carcinogen]: 10 MG/KG 1/WK FOR 3 WK, Promoter: NONE USED); 18/20 (90%), 18/20 (90%), 0%, not significant (Carcinogen: NITROSOMETHYL-3-CARBOXYPROPYLAMINE, 61445-55-4, Dose [Inhibitor]: 0, 0.35 PPM IN DIET BEGINNING 1 WK PRIOR TO CARCINOGEN DOSE AND CONTINUED FOR DURATION OF STUDY (STUDY DURATION: LIFETIM, Species: RAT, Strain/Sex: F344/FEMALE, Target Tissue: Type of Lesion: BLADDER: TUMORS, Dose [Carcinogen]: 20 ML OF A 600 MG/L SOLUTION IN DRINKING WATER 5 D/WK FOR 28 WK, Promoter: NONE USED); 18/20 (90%), 20/20 (100%), -11%, not significant (Carcinogen: NITROSOMETHYL-3-CARBOXYPROPYLAMINE, 61445-55-4, Dose [Inhibitor]: 0, 0.7 PPM IN DIET BEGINNING 1 WK PRIOR TO CARCINOGEN DOSE AND CONTINUED FOR DURATION OF STUDY (STUDY DURATION: LIFETIME, Species: RAT, Strain/Sex: F344/FEMALE, Target Tissue: Type of Lesion: BLADDER: TUMORS, Dose [Carcinogen]: 20 ML OF A 600 MG/L SOLUTION IN DRINKING WATER 5 D/WK FOR 28 WK, Promoter: NONE USED); 18/20 (90%), 20/20 (100%), -11%, not significant (Carcinogen: NITROSOMETHYL-3-CARBOXYPROPYLAMINE, 61445-55-4, Dose [Inhibitor]: 0, 1.4 PPM IN DIET BEGINNING 1 WK PRIOR TO CARCINOGEN DOSE AND CONTINUED FOR DURATION OF STUDY (STUDY DURATION: LIFETIME, Species: RAT, Strain/Sex: F344/FEMALE, Target Tissue: Type of Lesion: BLADDER: TUMORS, Dose [Carcinogen]: 20 ML OF A 600 MG/L SOLUTION IN DRINKING WATER 5 D/WK FOR 28 WK, Promoter: NONE USED). For the same compound, the “tumour outcome (control, treated, inhibition, significance)” value is, setting by setting: (Carcinogen: NITROSOMETHYL-3-CARBOXYPROPYLAMINE, 61445-55-4, Dose [Inhibitor]: 0, 2.1 PPM IN DIET BEGINNING 1 WK PRIOR TO CARCINOGEN DOSE AND CONTINUED FOR DURATION OF STUDY (STUDY DURATION: LIFETIME, Species: RAT, Strain/Sex: F344/FEMALE, Target Tissue: Type of Lesion: BLADDER: TUMORS, Dose [Carcinogen]: 20 ML OF A 600 MG/L SOLUTION IN DRINKING WATER 5 D/WK FOR 28 WK, Promoter: NONE USED) 18/20 (90%), 17/20 (85%), 6%, not significant; (Carcinogen: NITROSOMETHYLCYCLOHEXYLAMINE, 5432-28-0, Dose [Inhibitor]: 0, 0.35 PPM IN DIET BEGINNING 1 WK PRIOR TO CARCINOGEN DOSE AND CONTINUED FOR DURATION OF STUDY (STUDY DURATION: LIFETIM, Species: RAT, Strain/Sex: F344/FEMALE, Target Tissue: Type of Lesion: ESOPHAGUS: TUMORS, Dose [Carcinogen]: 20 ML OF A 5 MG/L SOLUTION IN DRINKING WATER 5 D/WK FOR 28 WK, Promoter: NONE USED) 17/20 (85%), 17/20 (85%), 0%, not significant; (Carcinogen: NITROSOMETHYLCYCLOHEXYLAMINE, 5432-28-0, Dose [Inhibitor]: 0, 0.7 PPM IN DIET BEGINNING 1 WK PRIOR TO CARCINOGEN DOSE AND CONTINUED FOR DURATION OF STUDY (STUDY DURATION: LIFETIME, Species: RAT, Strain/Sex: F344/FEMALE, Target Tissue: Type of Lesion: ESOPHAGUS: TUMORS, Dose [Carcinogen]: 20 ML OF A 5 MG/L SOLUTION IN DRINKING WATER 5 D/WK FOR 28 WK, Promoter: NONE USED) 17/20 (85%), 17/20 (85%), 0%; (Carcinogen: NITROSOMETHYLCYCLOHEXYLAMINE, 5432-28-0, Dose [Inhibitor]: 0, 1.4 PPM IN DIET BEGINNING 1 WK PRIOR TO CARCINOGEN DOSE AND CONTINUED FOR DURATION OF STUDY (STUDY DURATION: LIFETIME, Species: RAT, Strain/Sex: F344/FEMALE, Target Tissue: Type of Lesion: ESOPHAGUS: TUMORS, Dose [Carcinogen]: 20 ML OF A 5 MG/L SOLUTION IN DRINKING WATER 5 D/WK FOR 28 WK, Promoter: NONE USED) 17/20 (85%), 16/20 (80%), 6%, not significant; (Carcinogen: NITROSOMETHYLCYCLOHEXYLAMINE, 5432-28-0, Dose [Inhibitor]: 0, 2.1 PPM IN DIET BEGINNING 1 WK PRIOR TO CARCINOGEN DOSE AND CONTINUED FOR DURATION OF STUDY (STUDY DURATION: LIFETIME, Species: RAT, Strain/Sex: F344/FEMALE, Target Tissue: Type of Lesion: ESOPHAGUS: TUMORS, Dose [Carcinogen]: 20 ML OF A 5 MG/L SOLUTION IN DRINKING WATER 5 D/WK FOR 28 WK, Promoter: NONE USED) 17/20 (85%), 18/20 (90%), -6%, not significant; (Carcinogen: NONE USED, Dose [Inhibitor]: 0.5 PPM IN DIET DAILY STARTING AT AGE 6 WK AND CONTINUING FOR DURATION OF STUDY (STUDY DURATION: 13 MO), Species: MOUSE, Strain/Sex: BALB/FEMALE, Target Tissue: Type of Lesion: MAMMARY GLAND: ADENOCARCINOMA, Promoter: NONE USED) 15/30 (50%), 8/30 (27%), 46%, p<0.05. Besides, the “tumour outcome (control, treated, inhibition, significance)” value is given as 15/30 (50%), 6/30 (20%), 60%, p<0.05 (Carcinogen: NONE USED, Dose [Inhibitor]: 2 PPM IN DIET DAILY STARTING AT AGE 6 WK AND CONTINUING FOR DURATION OF STUDY (STUDY DURATION: 13 MO), Species: MOUSE, Strain/Sex: BALB/FEMALE, Target Tissue: Type of Lesion: MAMMARY GLAND: ADENOCARCINOMA, Promoter: NONE USED); 61%, 0%, 100%, not calculated (Dose [Inhibitor]: 0, 3 PPM IN DRINKING WATER AD LIBITUM FOR DURATION OF STUDY (STUDY DURATION: 79 WK), Species: RAT, Strain/Sex: WISTAR/MALE, Target Tissue: Type of Lesion: LIVER: CARCINOMA, Dose [Carcinogen]: 126 UG/WK IN DRINKING WATER FOR 27 WK, Promoter: NONE USED); 61%, 0%, 100%, not calculated (Dose [Inhibitor]: 0, 6 PPM IN DRINKING WATER AD LIBITUM FOR DURATION OF STUDY (STUDY DURATION: 79 WK), Species: RAT, Strain/Sex: WISTAR/MALE, Target Tissue: Type of Lesion: LIVER: CARCINOMA, Dose [Carcinogen]: 126 UG/WK IN DRINKING WATER FOR 27 WK, Promoter: NONE USED). The outcome (Carcinogen: UV-B IRRADIATION, Dose [Inhibitor]: 0, 0.5 MG/KG DIET FOR 29 WK BEGINNING 1 WK PRIOR TO CARCINOGEN TREATMENT (STUDY DURATION: 29 WK), Species: MOUSE, Strain/Sex: SKH:HR-1/FEMALE, Target Tissue: Type of Lesion: SKIN: TUMOR, Dose [Carcinogen]: 90 MJ/CM2 3/WK FOR 20 WK, Promoter: NONE USED) is listed as 29, 17, 41%, p<0.05.
